Where “and” joins values, the source holds several entries; their conditions need not be identical. Equal values may be shown once. Read-outs that look alike come from different tables or passages of the source.
Legend:
[1] = biological target: T1, (α3β4)2β4 nAChR (Homo sapiens, UniProt P30926+P32297)
[2] = biological target: β3-α6-β2-α4-β2 nAChR (Homo sapiens, UniProt P17787+P43681+Q15825); test: cell-based
[3] = biological target: T2, (α3β4)2α3 nAChR (Homo sapiens, UniProt P30926+P32297)
[4] = biological target: T3, (α4β2)2α4 nAChR (Homo sapiens, UniProt P17787+P43681); test: cell-based; details: read-out: ACh EC90
T3 sequence (P43681 29-627 limits assumed): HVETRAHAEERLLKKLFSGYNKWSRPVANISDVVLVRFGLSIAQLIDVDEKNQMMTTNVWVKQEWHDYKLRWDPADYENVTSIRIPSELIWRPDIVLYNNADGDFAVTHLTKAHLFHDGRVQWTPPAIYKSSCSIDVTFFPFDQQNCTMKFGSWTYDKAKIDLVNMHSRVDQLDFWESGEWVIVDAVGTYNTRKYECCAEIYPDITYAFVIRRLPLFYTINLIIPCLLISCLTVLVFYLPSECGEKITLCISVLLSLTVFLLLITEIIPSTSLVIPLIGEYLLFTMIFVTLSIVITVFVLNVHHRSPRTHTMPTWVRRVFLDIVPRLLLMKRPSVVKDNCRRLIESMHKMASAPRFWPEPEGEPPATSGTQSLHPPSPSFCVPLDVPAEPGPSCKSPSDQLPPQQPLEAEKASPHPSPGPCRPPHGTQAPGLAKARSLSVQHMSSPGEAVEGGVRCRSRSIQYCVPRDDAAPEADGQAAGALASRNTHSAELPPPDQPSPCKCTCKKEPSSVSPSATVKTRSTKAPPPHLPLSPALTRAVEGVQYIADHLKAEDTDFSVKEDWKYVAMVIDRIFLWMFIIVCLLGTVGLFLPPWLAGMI
T3 sequence (P17787 26-502 limits assumed): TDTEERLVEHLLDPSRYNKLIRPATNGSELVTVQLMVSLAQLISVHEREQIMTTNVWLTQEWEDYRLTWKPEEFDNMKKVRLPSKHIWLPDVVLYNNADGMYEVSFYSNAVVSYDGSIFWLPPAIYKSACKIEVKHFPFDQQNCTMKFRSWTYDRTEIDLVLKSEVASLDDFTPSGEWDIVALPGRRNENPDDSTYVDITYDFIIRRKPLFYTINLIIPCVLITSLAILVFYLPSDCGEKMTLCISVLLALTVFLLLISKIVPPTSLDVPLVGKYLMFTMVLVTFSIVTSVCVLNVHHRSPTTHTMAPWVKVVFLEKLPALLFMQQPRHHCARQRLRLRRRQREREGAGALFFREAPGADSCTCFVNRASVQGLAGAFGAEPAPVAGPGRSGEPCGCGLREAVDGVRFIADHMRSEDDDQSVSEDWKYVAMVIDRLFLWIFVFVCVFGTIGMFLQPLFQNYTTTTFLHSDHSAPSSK

[5] = biological target: T4, α7 nAChR (Homo sapiens, UniProt P36544); assay type: cell-based
Target sequence in this assay (P36544 23-502): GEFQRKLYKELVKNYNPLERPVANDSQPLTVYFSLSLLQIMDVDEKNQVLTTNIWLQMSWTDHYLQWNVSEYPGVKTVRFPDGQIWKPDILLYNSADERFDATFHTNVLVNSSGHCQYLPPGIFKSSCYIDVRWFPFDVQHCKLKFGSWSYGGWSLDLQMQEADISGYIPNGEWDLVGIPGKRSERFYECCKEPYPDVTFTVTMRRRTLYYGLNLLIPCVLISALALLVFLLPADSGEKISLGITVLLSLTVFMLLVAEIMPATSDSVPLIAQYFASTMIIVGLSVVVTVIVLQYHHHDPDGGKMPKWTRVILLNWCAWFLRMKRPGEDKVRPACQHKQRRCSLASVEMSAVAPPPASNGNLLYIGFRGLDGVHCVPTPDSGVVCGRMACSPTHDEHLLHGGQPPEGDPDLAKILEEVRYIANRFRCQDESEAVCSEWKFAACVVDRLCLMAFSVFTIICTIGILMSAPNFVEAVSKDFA

[6] = biological target: T5, α4β2α5 nAChR (Homo sapiens, UniProt P17787+P30532+P43681)
T5 sequence (P43681 29-627 limits assumed): as the sequence (P43681 29-627 limits assumed) above
T5 sequence (P17787 26-502 limits assumed): as the sequence (P17787 26-502 limits assumed) above
T5 sequence (P30532 23-468 partner limits assumed): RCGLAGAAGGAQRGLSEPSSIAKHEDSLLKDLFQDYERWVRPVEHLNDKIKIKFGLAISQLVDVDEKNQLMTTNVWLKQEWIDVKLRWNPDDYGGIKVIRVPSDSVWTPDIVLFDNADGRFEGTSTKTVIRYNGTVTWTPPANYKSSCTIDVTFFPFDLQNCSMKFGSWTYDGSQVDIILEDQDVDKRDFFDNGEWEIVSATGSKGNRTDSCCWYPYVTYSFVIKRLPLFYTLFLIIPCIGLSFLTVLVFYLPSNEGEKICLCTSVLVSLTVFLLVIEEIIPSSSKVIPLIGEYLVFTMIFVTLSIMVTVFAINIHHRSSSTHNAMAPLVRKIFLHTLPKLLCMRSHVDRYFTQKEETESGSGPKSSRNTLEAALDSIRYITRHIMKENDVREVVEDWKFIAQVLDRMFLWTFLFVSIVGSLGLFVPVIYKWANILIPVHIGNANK

[7] = biological target: T4, α7 nAChR; test: cell-based; assay type: cell-based
Target sequence in this assay (P36544 23-502 limits assumed): as the sequence (P36544 23-502) above

[8] = biological target: T6, (α3β2)2β2 nAChR (Homo sapiens, UniProt P17787+P32297); test: cell-based
[9] = biological target: T5, α4β2α5 nAChR; test: cell-based; details: read-out: ACh EC90
[10] = biological target: T7, (α4β2)2β2 nAChR (Homo sapiens, UniProt P17787+P43681); test: cell-based
T7 sequence (P43681 27-627 limits assumed): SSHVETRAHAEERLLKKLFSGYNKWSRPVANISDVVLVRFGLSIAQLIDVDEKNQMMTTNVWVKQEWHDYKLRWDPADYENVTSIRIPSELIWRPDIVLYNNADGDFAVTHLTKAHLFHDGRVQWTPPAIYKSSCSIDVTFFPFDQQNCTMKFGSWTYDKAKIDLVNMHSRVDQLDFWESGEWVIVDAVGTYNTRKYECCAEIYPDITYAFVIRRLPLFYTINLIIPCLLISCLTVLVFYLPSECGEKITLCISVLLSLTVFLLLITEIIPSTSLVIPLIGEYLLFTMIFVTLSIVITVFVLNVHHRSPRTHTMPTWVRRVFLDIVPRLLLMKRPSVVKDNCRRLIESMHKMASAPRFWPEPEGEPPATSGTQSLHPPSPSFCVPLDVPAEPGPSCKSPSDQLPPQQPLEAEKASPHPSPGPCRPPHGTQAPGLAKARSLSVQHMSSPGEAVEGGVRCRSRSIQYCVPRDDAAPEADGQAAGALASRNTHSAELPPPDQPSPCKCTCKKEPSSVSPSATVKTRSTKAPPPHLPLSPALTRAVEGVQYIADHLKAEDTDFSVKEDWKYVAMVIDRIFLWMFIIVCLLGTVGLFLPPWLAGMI
T7 sequence (P17787 26-502 limits assumed): as the sequence (P17787 26-502 limits assumed) above

[11] = biological target: T4, α7 nAChR; test: cell-based; assay type: cell-based; remark: listed apart in the source
Target sequence in this assay (P36544 23-502 limits assumed): as the sequence (P36544 23-502) above

[12] = biological target: T7, (α4β2)2β2 nAChR; test: cell-based; details: read-out: % Max Inhibition (95% CI)
[13] = biological target: T3, (α4β2)2α4 nAChR; test: cell-based
[14] = biological target: T6, (α3β2)2β2 nAChR; test: cell-based; details: read-out: % Max Inhibition (95% CI)
[15] = biological target: T5, α4β2α5 nAChR; test: cell-based
[16] = biological target: T1, (α3β4)2β4 nAChR; test: cell-based; details: read-out: % Max Inhibition (95% CI)
[17] = biological target: T2, (α3β4)2α3 nAChR; test: cell-based; details: read-out: % Max Inhibition (95% CI)
[18] = biological target: α6/α3β2β3 nAChR (Homo sapiens, UniProt P17787+P32297+Q05901+Q15825); test: cell-based
[19] = biological target: (α3β2)2α3 nAChR (Homo sapiens, UniProt P17787+P32297); test: cell-based; details: read-out: % Max Inhibition (95% CI)
[20] = read-out: % Max Inhibition (95% CI)

## CC(=O)OCC[N+](C)(C)C [ACh, acetylcholine]
[1]
  NH (1) (95% CI): 1.0 (0.92 – 1.2)
[2]
  NH (1) (95% CI): 0.77 (0.69 – 0.85)
[2]; read-out: ACh EC90
  EC90: 40 µM
[3]
  NH (1) (95% CI): 1.9 (1.7 – 2.1)
[4]
  EC90: 316 µM
[5]
  NH (1) (95% CI): 1.6 (1.4 – 1.9)
[5]; read-out: ACh EC90
  EC90: 1260 µM
[6]
  NH (1) (95% CI): 0.90 (0.82 – 0.99)
[7]
  NH (95% CI) of ACh curve, drug treatment none: 1.1 (1.0 - 1.2)
[8]
  NH (1) (95% CI): 0.95 (0.84 – 1.1)
[8]; read-out: ACh EC90
  EC90: 316 µM
[9]
  EC90: 20 µM
[10]
  NH (1) (95% CI): 0.85 (0.76 – 0.95)
[10]; read-out: ACh EC90
  EC90: 100 µM

## CCN1C[C@]2(COC(=O)c3ccccc3N3C(=O)C[C@H](C)C3=O)CC[C@H](OC)[C@@]34[C@@H]5C[C@H]6[C@H](OC)[C@@H]5[C@](O)(C[C@@H]6OC)[C@@](O)([C@@H](OC)[C@H]23)[C@@H]14 [MLA, Methyllycaconitine]
[11]
  block of ACh EC90 response by MLA: prevented α7 nAChR activation
[7]
  NH (95% CI) of ACh curve with co-applied MLA: 0.9 (0.8 - 1.1) and 1.1 (0.9 - 1.2)
[7]; IC50 (95% CI): ACh apparent potency with co-applied MLA
  IC50: 330 µM and 412 µM

## CC[C@H](C)[C@H](NC(=O)[C@H](CC(=O)O)NC(=O)[C@H](CS)NC(=O)[C@H](CO)NC(=O)[C@@H](NC(=O)CNC(=O)[C@H](CC(C)C)NC(=O)[C@H](CCCNC(=N)N)NC(=O)[C@@H]1CCCN1C(=O)[C@H](CC(N)=O)NC(=O)[C@H](CCC(=O)O)NC(=O)[C@@H]1CCCN1C(=O)[C@H](CCSC)NC(=O)[C@H](Cc1c[nH]c2ccccc12)NC(=O)[C@@H](NC(=O)[C@@H](NC(=O)[C@@H](N)Cc1ccc(O)cc1)[C@@H](C)O)[C@@H](C)CC)[C@@H](C)O)C(=O)N[C@@H](Cc1ccccc1)C(=O)N[C@H](C(=O)N[C@@H](CC(N)=O)C(=O)N[C@@H](CO)C(=O)N[C@@H](CCCNC(=N)N)C(=O)NCC(=O)N[C@@H](CCCCN)C(=O)N[C@@H](CCCNC(=N)N)C(=O)N[C@@H](C)C(=O)N[C@@H](CO)C(=O)N[C@@H](CCCCN)C(=O)NCC(=O)O)[C@@H](C)O [RVG peptide]
[12]
  inhibition at 1000 µM: 46%
[13]; IC50 (95% CI)
  IC50: 270 µM
[13]; IC50, 95% CI
  IC50: 220 to 340 µM
[13]; [20]
  inhibition at 1000 µM: 76%
[14]
  inhibition at 1000 µM: 57%
[11]
  % Max Inhibition of ACh EC90 (95% CI): 98 (97 – 99) %
  IC50: 25 µM
[15]
  IC50: 340 µM
[15]; [20]
  inhibition at 1000 µM: 67%
[16]
  inhibition at 1000 µM: 22%
[17]
  inhibition at 1000 µM: 49%
[18]
  IC50: 300 µM
[18]; [20]
  inhibition at 1000 µM: 82%
[19]
  inhibition at 1000 µM: 67%

From publication PMC11148329 (Frontiers in Cellular and Infection Microbiology, 2024)
